Where a name gives a salt, the structure may show the parent alone.

For one test, the target named is T1, PKCθ (Homo sapiens, UniProt Q04759).
T1 construct: His6; purchased Millipore; host or cells: baculovirus in Sf21 cells
Kind of test: In vitro enzyme assay (time-resolved fluorescence kinase assay), PKCθ, 100 μM ATP. Format: biochemical. In a few lines:
(§1)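 Read-out was time-resolved fluorescence, corrected for a minus-enzyme blank and converted to percent activity relative to enzyme without drug. They were stopped with EDTA.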

In the next test the target is T2, PKCα (Homo sapiens, UniProt P17252).
T2 construct: His6; purchased Millipore; host or cells: baculovirus in Sf21 cells
The experiment in a line: In vitro enzyme assay (time-resolved fluorescence kinase assay), PKCα, 100 μM ATP. The settings on record: 100 μM ATP; read-out: PKCα enzyme IC50. It counts as biochemical. The essentials:
as §1

For test [1], the system named is CD3/CD28 induced IL-2 in human T-Blasts. The experiment in a line: T-Blasts CD3/CD28 induced IL-2 assay. Format: cell-based. Particulars: read-out: CD3/CD28-stimulated IL2 in T-blasts EC50. The essentials: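 PHA-generated human T-blasts, 2×10^5 per well, preincubated 30 min with 8-point 1/3 compound dilutions in duplicate, then stimulated with anti-CD3+anti-CD28 (5 μg/mL final) for 24 h at 37° C. Supernatant IL-2 measured; MTT toxicity run on remaining cells.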

T1 sequence (Q04759 whole entry): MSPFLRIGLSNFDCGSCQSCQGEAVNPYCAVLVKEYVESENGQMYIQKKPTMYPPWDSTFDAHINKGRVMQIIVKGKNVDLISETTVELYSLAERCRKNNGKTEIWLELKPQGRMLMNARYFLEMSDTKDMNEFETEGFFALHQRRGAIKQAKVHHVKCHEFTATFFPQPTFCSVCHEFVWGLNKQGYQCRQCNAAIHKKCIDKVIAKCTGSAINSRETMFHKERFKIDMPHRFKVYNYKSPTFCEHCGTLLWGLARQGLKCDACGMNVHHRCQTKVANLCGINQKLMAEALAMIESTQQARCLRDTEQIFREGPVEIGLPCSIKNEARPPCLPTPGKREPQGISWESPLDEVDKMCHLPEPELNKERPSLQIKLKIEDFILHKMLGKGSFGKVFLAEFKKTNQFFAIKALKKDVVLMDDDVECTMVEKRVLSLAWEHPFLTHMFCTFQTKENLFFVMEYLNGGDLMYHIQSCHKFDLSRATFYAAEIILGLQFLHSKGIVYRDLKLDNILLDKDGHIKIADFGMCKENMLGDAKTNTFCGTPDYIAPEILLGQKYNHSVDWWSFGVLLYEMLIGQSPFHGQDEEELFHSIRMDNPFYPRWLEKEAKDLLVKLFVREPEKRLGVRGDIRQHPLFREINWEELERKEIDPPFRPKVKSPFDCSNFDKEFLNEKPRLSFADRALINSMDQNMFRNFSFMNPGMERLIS

Usually IC50 stands for the point on the concentration scale where inhibition reaches its midpoint. As to `C[C@@H]1C(=O)NN=C2COc3cc(-c4cccc5ccccc45)c(NC4CNC4)cc3N21` [Example 10], the figures for the IC50 against PKCθ and on PKCα were below 250 nM and 1000 to 10000 nM, respectively. Also, in test [1], the EC50 was below 250 nM.

As for `C[C@H]1C(=O)NN=C2COc3cc4ccn([C@@]5(C)CCNC5)c4cc3N21` [Example 162, (S)-1-Methyl-10-((S)-3-methyl-pyrrolidin-3-yl)-3,5-dihydro-10H-6-oxa-3,4,10,11b-tetraaza-cyclopenta[b]phenanthren-2-one], the concentration for half-maximal inhibition (IC50) against PKCθ is below 250 nM; on PKCα it was 250 to 1000 nM. Also, in test [1], the EC50 is below 250 nM.

As for `CC1C(=O)NN=C2COc3cc(-c4ccc(F)cc4F)c(NC4CNC4)cc3N21` (racemic) [Example 47], the IC50 was below 250 nM on PKCθ and 1000 to 10000 nM at PKCα. In addition, the EC50 in test [1] is below 250 nM.

Turning to `C[C@@H]1C(=O)NN=C2COc3cc4c(cc3N21)N(C1(C)CNC1)CC4` [Example 159, 1-Methyl-10-(3-methyl-azetidin-3-yl)-3,5,9,10-tetrahydro-8H-6-oxa-3,4,10,11b-tetraaza-cyclopenta[b]phenanthren-2-one hydrochloride], the IC50 on PKCθ is below 250 nM; on PKCα it was 1000 to 10000 nM. In addition, the EC50 in test [1] is below 250 nM.

As for `C[C@@H]1C(=O)NN=C2COc3cc4ccn([C@@]5(C)CCNC5)c4cc3N21` [Example 163, (R)-1-Methyl-10-((S)-3-methyl-pyrrolidin-3-yl)-3,5-dihydro-10H-6-oxa-3,4,10,11b-tetraaza-cyclopenta[b]phenanthren-2-one], the IC50 against PKCθ and on PKCα was below 250 nM in each case. Besides, the EC50 in test [1] is below 250 nM.

With `CC1C(=O)NN=C2COc3cc(-c4ccc5ccccc5c4)c(NC4CNC4)cc3N21` (racemic) [Example 36], the IC50 is below 250 nM against PKCθ and 1000 to 10000 nM on PKCα. In addition, the EC50 in test [1] is below 250 nM.

As for `CC(C)c1cc2c(cc1[C@@H](C)C1(C)CN(C)C1)N1C(=NNC(=O)[C@H]1C)CO2` [Example 134, (R)-6-[(R)-1-(1,3-Dimethyl-azetidin-3-yl)-ethyl]-7-isopropyl-4-methyl-2,10-dihydro-9-oxa-1,2,4a-triaza-phenanthren-3-one], the figures for the IC50 at PKCθ and at PKCα were below 250 nM and 1000 to 10000 nM, respectively. For the same molecule, the EC50 in test [1] fell in the range of 250 to 1000 nM.

On to `CC(C)c1cc2c(cc1C1CCN(C)CC1)N1C(=NNC(=O)[C@H]1C)CO2` [Example 219], for which the IC50 against PKCθ is below 250 nM; at PKCα it was 1000 to 10000 nM. For the same molecule, the EC50 in test [1] is below 250 nM.

`CC1C(=O)NN=C2COc3ccc(C(C)C4(C)CNC4)cc3N21` (stereo not drawn) [Example 129, 1-Methyl-9-(1-(3-methylazetidin-3-yl)ethyl)-3,5-dihydrobenzo[5,6][1,4]oxazino[3,4-c][1,2,4]triazin-2(1H)-one trifluoroacetic acid]: the results for the IC50 on PKCθ and at PKCα were below 250 nM and 1000 to 10000 nM, respectively. Also, in test [1], the EC50 fell in the range of 250 to 1000 nM.

As for `C[C@@H]1C(=O)NN=C2COc3cc(-c4ccccc4F)c(N4CCN(C)[C@@H](C)C4)cc3N21` [Example 232], the IC50 against PKCθ is below 250 nM; at PKCα, 250 to 1000 nM. Moreover, the EC50 in test [1] was below 250 nM.

As to `CC1C(=O)NN=C2CSc3ccc(NC4CNC4)cc3N21` (stereo not drawn) [Example 97, 6-(Azetidin-3-ylamino)-4-methyl-2,10-dihydro-9-thia-1,2,4a-triaza-phenanthren-3-one hydrochloric acid salt], the figures for the IC50 at PKCθ and on PKCα were below 250 nM and 1000 to 10000 nM, respectively. In addition, the EC50 in test [1] is below 250 nM.

On to `C[C@@H]1C(=O)NN=C2COc3cc([C@@H](C)C(F)(F)F)c(NC4CNC4)cc3N21` [Example 61], for which the IC50 against PKCθ is below 250 nM; on PKCα, 1000 to 10000 nM. Further, the EC50 in test [1] fell in the range of 250 to 1000 nM.

For the molecule `CC1C(=O)NN=C2COc3cc(F)c(OC4CNC4)cc3N21` (stereo not drawn) [Example 123, 9-(Azetidin-3-yloxy)-8-fluoro-1-methyl-3,5-dihydrobenzo[5,6][1,4]oxazino[3,4-c][1,2,4]triazin-2(1H)-one trifluoroacetic acid], the results for the IC50 at PKCθ and at PKCα were 250 to 1000 nM and 1000 to 10000 nM, respectively. Besides, the EC50 in test [1] lay within 1000 to 10000 nM.

As to `C[C@@H]1C(=O)NN=C2COc3cc(-c4ccccc4F)c([C@@H](C)C4(C)CNC4)cc3N21` [Example 146, (R)-7-(2-Fluoro-phenyl)-4-methyl-6-[(R)-1-(3-methyl-azetidin-3-yl)-ethyl]-2,10-dihydro-9-oxa-1,2,4a-triaza-phenanthren-3-one], the IC50 on PKCθ and at PKCα was below 250 nM each time. In addition, in test [1], the EC50 is below 250 nM.

For `C[C@@H]1C(=O)NN=C2COc3cc(-c4ccccc4F)c(N4CCN[C@@H](C)C4)cc3N21` [Example 225], the IC50 against PKCθ is below 250 nM; on PKCα, 250 to 1000 nM. Further, the EC50 in test [1] was below 250 nM.

Regarding `C[C@@H]1C(=O)NN=C2COc3cc(-c4ccccc4F)c(N(C)C4(C)CN(CCO)C4)cc3N21` [Example 191], the IC50 against PKCθ is below 250 nM; at PKCα, 250 to 1000 nM. For the same molecule, the EC50 in test [1] is below 250 nM.

In the case of `CC1C(=O)NN=C2COc3cc(-c4cccc(Cl)c4)c(NC4CNC4)cc3N21` (racemic) [Example 17], the results for the IC50 against PKCθ and at PKCα were below 250 nM and 1000 to 10000 nM, respectively. The EC50 in test [1] is below 250 nM.

`CC1C(=O)NN=C2COc3cc(-c4ccc(F)cc4)c(NC4CNC4)cc3N21` (racemic) [Example 50]: the IC50 at PKCθ is below 250 nM; at PKCα, 1000 to 10000 nM. Moreover, the EC50 in test [1] was below 250 nM.

In the case of `C[C@@H]1C(=O)NN=C2COc3cc(-c4ccccc4F)c([C@H]4CCCNC4)cc3N21` [Example 216], the IC50 against PKCθ is below 250 nM; at PKCα, 1000 to 10000 nM. In test [1], the EC50 lay in the range of 250 to 1000 nM.

As for `C[C@@H]1C(=O)NN=C2COc3cc(-c4ccccc4F)c([C@@H](C)C4(C)CN(CCO)C4)cc3N21` [Example 141], the IC50 at PKCθ was below 250 nM; on PKCα, 250 to 1000 nM. Further, the EC50 in test [1] was below 250 nM.

With `C[C@@H]1C(=O)NN=C2COc3cc(-c4ccccc4C(C)(C)O)c([C@@H](C)C4(C)CN(C)C4)cc3N21` [Example 137, (R)-6-[(R)-1-(1,3-Dimethyl-azetidin-3-yl)-ethyl]-7-[2-(1-hydroxy-1-methyl-ethyl)-phenyl]-4-methyl-2,10-dihydro-9-oxa-1,2,4a-triaza-phenanthren-3-one], the IC50 is below 250 nM on PKCθ and 1000 to 10000 nM at PKCα. The EC50 in test [1] lay in the range of 250 to 1000 nM.

As to `CC1C(=O)NN=C2COc3cc(-c4cccc(C#N)c4)c(NC4CNC4)cc3N21` (racemic) [Example 39], the IC50 on PKCθ was below 250 nM; at PKCα, 1000 to 10000 nM. In test [1], the EC50 was 250 to 1000 nM.

On to `CCN1CC(C)(N(C)c2cc3c(cc2-c2ccccc2)OCC2=NNC(=O)C(C)N23)C1` (stereo not drawn) [Example 93], for which the IC50 is below 250 nM on PKCθ and 1000 to 10000 nM at PKCα. Also, the EC50 in test [1] is 1000 to 10000 nM.

In the case of `CC1C(=O)NN=C2CCc3ccc(NC4CNC4)cc3N21` (stereo not drawn) [Example 108, 9-(Azetidin-3-ylamino)-1-methyl-5,6-dihydro-1H-[1,2,4]triazino[4,3-a]quinolin-2(3H)-one hydrochloric acid], the results for the IC50 on PKCθ and on PKCα were below 250 nM and 250 to 1000 nM, respectively. In addition, the EC50 in test [1] is below 250 nM.

For `C[C@@H]1CN(C)[C@@H](C)CN1c1cc2c(cc1-c1ccccc1F)OCC1=NNC(=O)[C@@H](C)N12` [Example 246, (R)-7-(2-Fluoro-phenyl)-4-methyl-6-((2R,5S)-2,4,5-trimethyl-piperazin-1-yl)-2,10-dihydro-9-oxa-1,2,4a-triaza-phenanthren-3-one], the IC50 is below 250 nM against PKCθ and 250 to 1000 nM on PKCα. Also, in test [1], the EC50 is below 250 nM.

As for `COc1ccc(-c2cc3c(cc2NC2CNC2)N2C(=NNC(=O)C2C)CO3)cc1` (racemic) [Example 30], the IC50 is below 250 nM at PKCθ and 1000 to 10000 nM on PKCα. Also, the EC50 in test [1] lay in the range of 250 to 1000 nM.

For the molecule `CC1C(=O)NN=C2COc3cc(-c4ccc(F)c(F)c4)c(NC4CNC4)cc3N21` (racemic) [Example 23], the IC50 against PKCθ is below 250 nM; at PKCα, 1000 to 10000 nM. In addition, in test [1], the EC50 is below 250 nM.

With `CC1C(=O)NN=C2COc3cc(-c4ccc(Cl)c(Cl)c4)c(NC4CNC4)cc3N21` (racemic) [Example 25], the figures for the IC50 on PKCθ and at PKCα were below 250 nM and 1000 to 10000 nM, respectively. Further, the EC50 in test [1] was below 250 nM.

Consider `Cc1cccc(-c2cc3c(cc2NC2CNC2)N2C(=NNC(=O)C2C)CO3)c1` (racemic) [Example 22], for which the IC50 is below 250 nM against PKCθ and 1000 to 10000 nM at PKCα. The EC50 in test [1] was below 250 nM.

For `C[C@@H]1C(=O)NN=C2COc3cc(-c4ccccc4F)c(N4[C@@H]5CC[C@H]4CNC5)cc3N21` [Example 228], the IC50 was below 250 nM on PKCθ and 250 to 1000 nM at PKCα. In test [1], the EC50 was in the range of 250 to 1000 nM.

For `CC1C(=O)NN=C2COc3cc(-c4ccccc4)c(C4CCNCC4)cc3N21` (stereo not drawn) [Example 119, 1-Methyl-8-phenyl-9-(piperidin-4-yl)-3,5-dihydrobenzo[5,6][1,4]oxazino[3,4-c][1,2,4]triazin-2(1H)-one trifluoroacetic acid], the IC50 against PKCθ is below 250 nM; on PKCα it was 1000 to 10000 nM. Also, the EC50 in test [1] was below 250 nM.

With `CC(C)c1cc2c(cc1NC1CNC1)N1C(=NNC(=O)[C@H]1C)CO2` (single isomer, unassigned) [Example 57-1, trifluoroacetic acid], the IC50 on PKCθ was below 250 nM; at PKCα it was 1000 to 10000 nM. Moreover, in test [1], the EC50 was below 250 nM.

Turning to `CC(C)c1cc2c(cc1[C@@H]1CCNC[C@@H]1C)N1C(=NNC(=O)[C@H]1C)CO2` [Example 202], the IC50 against PKCθ was below 250 nM; at PKCα, 1000 to 10000 nM. Also, the EC50 in test [1] is below 250 nM.

Source of the values: patent US9115151B2, “Substituted 2,10-dihydro-9-oxa-1,2,4A-triazaphenanthren-3-ones and uses thereof” (AbbVie Inc., priority 2012, dated 2015).
